Laboratory results taken from patent US12691199B2, “Mussel-inspired photoreactive instant glue for environmental and biomedical applications” (KING ABDULLAH UNIVERSITY OF SCIENCE AND TECHNOLOGY, priority 2022, dated 2026).

Test: Photocuring / inverted vial test of aqueous adhesive solution
Assay type: physicochemical
Conditions: aqueous solution with LAP 50.9 mM, 395 nm light
Procedure: The minimum concentration of the monomer and the crosslinker that leads to a solid material after curing is 892.8 mM and 161.8 mM, respectively. The high hydrophilicity of both compounds allows the formation of a highly concentrated aqueous solution. After the photoinitiator (LAP) addition and the application of 395 nm wavelength light, radicals are formed, and a polymeric crosslinked network is created according to the reaction (FIG. 9). The solution solidifies after 10 sec of exposure to the UV light (FIGS. 10A-B). FIG. 10A has a vial (892.8 mM KDOPA-MA and 161.8 mM (KDOPA)2-DMA) and FIG. 10B (297.6 mM KDOPA-MA and 53.9 mM (KDOPA)2-DMA). In both cases, the LAP concentration was constant (50.9 mM) and the UV light was applied for 10 sec. When the concentration of the compounds decreases, the solution remains liquid and becomes cloudier after curing. […] FIG. 11A illustrates 15% crosslinker molar ratio. FIG. 11B illustrates 45% crosslinker molar ratio.
The adhesive was prepared using the formulation of Table 1. An aqueous solution of LAP photoinitiator (15 mg/ml), KDOPA-MA (350 mg/ml) and (KDOPA)2-DMA (145 mg/ml) was prepared by mixing and vortexing for 10 sec. Throughout the text this formulation mentioned KDopa glue. When KDOPA-MA was replaced with KY-MA (the (KDOPA)2-DMA crosslinker remains the same) disclosed embodiments have the KY glue. […]

| minimum concentration that leads to a solid material after curing | Substance |
| --- | --- |
| 161.8 mM | Lys-DOPA dimethacrylate [(KDOPA)2-DMA] |
| 892.8 mM | Lys-DOPA methacrylate [KDOPA-MA] |
